Source: patent publication US20190077795A1, “ARGININE […] INHIBITORS AND USES THEREOF” (Epizyme, Inc., priority 2014, published 2019)
Like-named read-outs stand apart in the source and are kept apart here.

What was measured:
human PRMT1 = target: T1, human PRMT1 (Homo sapiens, UniProt Q99873); test: PRMT1 Biochemical Assay; details: peptide substrate, 3H-SAM Flashplate assay; read-out: PRMT1 IC50
T1 construct: GST-tagged PRMT1; made in house; host or cells: High Five insect cells (baculovirus, pFastBac1)
T1 sequence (Q99873 with tags, fused parts or gaps): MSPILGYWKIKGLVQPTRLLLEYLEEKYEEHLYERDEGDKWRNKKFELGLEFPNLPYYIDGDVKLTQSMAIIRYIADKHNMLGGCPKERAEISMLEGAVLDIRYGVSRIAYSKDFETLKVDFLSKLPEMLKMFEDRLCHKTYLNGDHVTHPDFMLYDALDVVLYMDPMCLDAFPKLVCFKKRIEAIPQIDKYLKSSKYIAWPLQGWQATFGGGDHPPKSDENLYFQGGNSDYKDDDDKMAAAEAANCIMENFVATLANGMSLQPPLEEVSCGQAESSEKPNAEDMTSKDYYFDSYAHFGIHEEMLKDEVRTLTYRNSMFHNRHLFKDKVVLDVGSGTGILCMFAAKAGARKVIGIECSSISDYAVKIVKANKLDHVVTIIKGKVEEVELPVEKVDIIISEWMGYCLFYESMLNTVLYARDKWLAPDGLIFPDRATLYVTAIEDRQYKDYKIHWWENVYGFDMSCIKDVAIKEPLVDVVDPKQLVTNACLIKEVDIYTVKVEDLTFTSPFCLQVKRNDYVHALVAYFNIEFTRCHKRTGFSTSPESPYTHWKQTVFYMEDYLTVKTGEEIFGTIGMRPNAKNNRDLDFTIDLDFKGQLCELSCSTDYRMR
Summary of the method: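 GST-tagged PRMT1 from baculovirus-infected cells, preincubated with compounds 30 min at room temperature in 20 mM Bicine pH 7.6, 1 mM TCEP, 0.005% BSG, 0.002% Tween 20. Reaction started with ³H-SAM plus biotinylated peptide, stopped with 300 µM cold SAM.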

human PRMT6 = target: T2, human PRMT6 (Homo sapiens, UniProt Q96LA8); test: PRMT6 Biochemical Assay
T2 construct: Flag-PRMT6-His; made in house; host or cells: HEK 293F cells (BacMam baculovirus, pFastBacMam)
T2 sequence (Q96LA8 with tags, fused parts or gaps): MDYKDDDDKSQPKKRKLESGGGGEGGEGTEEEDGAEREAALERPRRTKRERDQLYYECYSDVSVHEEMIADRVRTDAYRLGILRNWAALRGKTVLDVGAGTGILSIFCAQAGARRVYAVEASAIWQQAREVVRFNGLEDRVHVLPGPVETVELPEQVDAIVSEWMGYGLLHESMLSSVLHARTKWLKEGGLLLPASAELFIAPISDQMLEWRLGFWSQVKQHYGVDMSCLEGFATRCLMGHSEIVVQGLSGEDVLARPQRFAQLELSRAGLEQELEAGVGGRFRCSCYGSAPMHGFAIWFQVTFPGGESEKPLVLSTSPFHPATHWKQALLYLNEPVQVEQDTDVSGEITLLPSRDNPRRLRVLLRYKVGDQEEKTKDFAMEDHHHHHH

[1] = tested on: mono-methyl arginine in RKO cells; test: RKO Methylation Assay, In Cell Western (ICW); type: cell-based; details: 72 hours
human PRMT8 = human PRMT8 (Homo sapiens, UniProt Q9NR22); test: PRMT8 Biochemical Assay; details: PRMT8 IC50 (uM), peptide substrate, 3H-SAM Flashplate assay
Sequence of human PRMT8 (Q9NR22 whole entry): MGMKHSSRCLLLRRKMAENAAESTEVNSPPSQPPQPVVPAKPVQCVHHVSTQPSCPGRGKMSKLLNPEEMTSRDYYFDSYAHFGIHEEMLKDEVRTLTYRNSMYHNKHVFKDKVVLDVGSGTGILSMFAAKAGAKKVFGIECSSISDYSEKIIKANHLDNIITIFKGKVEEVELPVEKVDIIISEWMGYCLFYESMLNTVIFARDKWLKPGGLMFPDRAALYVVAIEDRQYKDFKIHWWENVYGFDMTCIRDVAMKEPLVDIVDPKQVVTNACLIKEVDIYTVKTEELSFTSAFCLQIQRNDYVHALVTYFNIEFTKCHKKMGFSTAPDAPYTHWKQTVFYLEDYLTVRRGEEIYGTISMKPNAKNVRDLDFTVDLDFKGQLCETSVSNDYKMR

[2] = peptide substrate, 3H-SAM Flashplate assay, read-out: PRMT6 IC50

Row | SMILES | IC50 (human PRMT1) [nM] | IC50 (human PRMT6; [2]) [µM] | ICW EC30 [1] [µM] | IC50 (human PRMT8) [µM] | IC50 (human PRMT6; PRMT6 IC50 (uM)) [µM]
1 | CCCOCCOc1cc(-c2n[nH]cc2CN(C)CCNC)cc(C(F)(F)F)c1 [Compound 60] | 12.7 | 1.2 | 1.263 | 0.0525 | –
2 | CN(CCN)Cc1c[nH]nc1-c1ccc2c(c1)OCC(=O)N2 [Compound 152] | 65.4 | 0.00828 | >20 | 0.459 | –
3 | CNCCN(C)Cc1c[nH]nc1-c1cc(Cl)c(OCC2CCC2)c(Cl)c1 [Compound 2] | 3.61 | 0.012 | 0.304 | 0.0218 | –
4 | CNCCN(C)Cc1c[nH]nc1-c1ccc(N(C)C2CCOCC2)cc1 [Compound 111] | 36.7 | 0.955 | 1.04 | 0.252 | –
5 | CNCCN(C)Cc1c[nH]nc1-c1ccc(OC2CC(OCCC(O)CO)C2)cc1 (stereo not drawn) [Compound 149] | 172 | 0.0286 | >20 | 0.342 | –
6 | CNCCN(C)Cc1ccnn1C1CCC2(CCOCC2)CC1 [Compound 59] | 12.2 | 0.0347 | 0.2464 | 0.042 | –
7 | CCN(c1ccc(-c2n[nH]cc2CN(C)CCNC)cn1)C1CCOCC1 [Compound 127] | 45.9 | 3.45 | 9.19 | 0.467 | –
8 | CNCCN(C)Cc1c[nH]nc1-c1ccc(OCCC(O)CO)cc1 (stereo not drawn) [Compound 125] | 45.5 | 0.0548 | 10.45 | 0.269 | –
9 | CNCCN(C)Cc1c[nH]nc1-c1cc(CC(F)(F)F)cc(OCCOC)c1 [Compound 70] | 15.2 | – | 0.494 | 0.0511 | 1.27
10 | CNCCN(C)Cc1c[nH]nc1-c1ccc(N2CCCC2=O)cc1 [Compound 99] | 29.7 | 0.0633 | 3.944 | 0.127 | –
11 | CNCCN(C)Cc1c[nH]nc1-c1ccc(OCCOc2ccc(OCCC(O)CO)cc2)cc1 (stereo not drawn) [Compound 35] | 7.59 | 0.005 | 0.4227 | 0.0219 | –
12 | COCCOc1cc(-c2n[nH]cc2CN(C)CCN)cc(C(F)F)c1 [Compound 29] | 6.94 | 0.276 | 5.437 | 0.112 | –
13 | CNCCN(C)Cc1c[nH]nc1-c1ccc(OCCc2ccccc2)cc1 [Compound 25] | 6.68 | 0.011 | 0.097 | 0.0173 | –
14 | CNCCN(C)Cc1c[nH]nc1-c1cc(F)c(OC2COC2)c(C(F)(F)F)c1 [Compound 23] | 6.47 | 0.0169 | 1.296 | 0.0608 | –
15 | CNCCN(C)Cc1c[nH]nc1-c1cc(OC)c(CC(C)C)c(OC)c1 [Compound 108] | 35.7 | – | 2.967 | 0.0712 | 0.824
16 | CCOCC(C)(C)c1ccc(-c2n[nH]cc2CN(C)CCNC)cc1 [Compound 105] | 34 | – | 2.748 | 0.106 | 0.0559
17 | CC(C)Cc1ccc(-c2n[nH]cc2CN(C)CCN)cc1C(F)(F)F [Compound 48] | 10.4 | 0.0427 | 3.673 | 0.0237 | –
18 | CNCCN(C)Cc1ccnn1-c1ccc(OC(C)C)cc1 [Compound 80] | 19.8 | 0.114 | 0.411 | 0.0494 | –
